# Key:
# [1] = Population pharmacokinetic model (NONMEM) of pooled phase I plasma and DBS concentrations
# CYP3A4 = settings: has been shown; no reference given; cited from earlier work
# [2] = Linear regression of DBS vs. plasma concentrations; design: species or system human; settings: DBS concentration = slope × plasma concentration-0.592; r^2 = 0.987, n = 228
# Source text: Deuterated emodepside-D16 was used as the internal standard.
# Supplementary file pntd.0010219.s008.tif: S1 Fig Linear regression analysis (emodepside DBS vs. plasma concentrations). Observations are represented by black open circles, the black solid line represents the line of identity, and the black dotted line represents the linear regression. DBS concentration = 0.605 × plasma concentration-0.592 (r^2 = 0.987, standard error of estimate, SEE = 5.74, n = 228). (TIF) Click here for additional data file.
# [3] = human, in vivo, po; cited from earlier work
# Source text: Currently, emodepside is under clinical development for the treatment of onchocerciasis, following a repurposing strategy and a collaboration agreement between DNDi and Bayer AG [26]. The safety, pharmacokinetics and relative bioavailability of emodepside after oral dosing in healthy male subjects have been evaluated in three phase I clinical trials, including a First-in-Human study. […] The long terminal half-life (> 20 d ...
# [4] = Safety analysis: drug-related treatment-emergent adverse events (TEAE) in three phase I studies; format: in vivo, human
# Protocol: For a detailed safety analysis for emodepside, based on the entire safety population (pharmacokinetic sample and placebo arms) of the phase I clinical trials the reader is referred to the recently published article by Gillon et al.. In the present study, the safety analysis and exposure–adverse events analysis was performed on all subjects whom were included in the population pharmacokinetic analysis (n = 142), i.e. all subjects who received at least 1 dose of the study drug as LSF solution, ASD-tablet A or ASD-tablet B. Safety was assessed in terms of incidence of a drug-related TEAE (as assessed by the investigator) and reported as Medical Dictionary for Regulatory Activities (MedDRA) code. A TEAE was defined as an event that emerged during treatment and having been absent pretreatment, or that worsened relative to the pretreatment state.
# [5] = inter-compartmental clearance, oral, 75 kg adult, n = 142
# [6] = nonparametric bootstrap, 75 kg adult
structure (smiles),measurement,setting,value
"CC(C)C[C@H]1C(=O)O[C@H](Cc2ccc(N3CCOCC3)cc2)C(=O)N(C)[C@@H](CC(C)C)C(=O)O[C@H](C)C(=O)N(C)[C@@H](CC(C)C)C(=O)O[C@H](Cc2ccc(N3CCOCC3)cc2)C(=O)N(C)[C@@H](CC(C)C)C(=O)O[C@H](C)C(=O)N1C [emodepside, Emodepside]","Venous plasma–DBS scaling factor, population estimate (%RSE)","[1]; DBS concentration as % of venous plasma concentration, DBS from 12 subjects",61.8 (2.9) %
same,"Vc/F, population estimate (%RSE)","[1]; central volume of distribution, oral, 75 kg adult, n = 142",52.4 (3.4) L
same,Maximum difference in MTT between the lowest and the highest dose,"[1]; dose range 1–40 mg, 0.012–0.667 mg per kg body weight per day",70%
same,"Q1/F, population estimate (%RSE)",[1]; [5],4.60 (5.1) L/h
same,"Q2/F, population estimate (%RSE)",[1]; [5],8.45 (2.9) L/h
same,"Dose on MTT, population estimate (%RSE)","[1]; linear, dose range 1–40 mg",105 (22.3) % per mg /kg/day
same,CL/F,"[1]; male, human, in vivo, po",21.5 mL/min
same,"MTT, population estimate (%RSE)","[1]; mean absorption transit time, oral, reference LSF solution, fasted, 75 kg adult, n = 142 healthy male subjects",0.488 (3.5) h
same,"Dose on MTT, bootstrapping median (95% CI)",[1]; nonparametric bootstrap,104.5 (62.9–154) % per mg /kg/day
same,"Venous plasma–DBS scaling factor, bootstrapping median (95% CI)",[1]; nonparametric bootstrap,61.8 (58.2–65.2) %
same,"MTT, bootstrapping median (95% CI)","[1]; nonparametric bootstrap, 860 successful runs of 1,000, 75 kg adult",0.489 (0.456–0.521) h
same,"CL/F, bootstrapping median (95% CI)",[1]; [6],1.29 (1.18–1.40) L/h
same,"Q1/F, bootstrapping median (95% CI)",[1]; [6],4.60 (4.14–5.04) L/h
same,"Q2/F, bootstrapping median (95% CI)",[1]; [6],8.43 (7.97–8.87) L/h
same,"Vc/F, bootstrapping median (95% CI)",[1]; [6],52.4 (49.2–55.8) L
same,"Vp1 / F, bootstrapping median (95% CI)",[1]; [6],45.1 (38.0–53.4) L
same,"Vp2/F, bootstrapping median (95% CI)",[1]; [6],647 (592–707) L
same,Dose proportionality of exposure,"[1]; present study population, 1–40 mg",dose-proportional
same,"Food intake on MTT, population estimate (%RSE)",[1]; reference: fasted state,114 (22.6) %
same,Reduction in F when the dose was given together with food,[1]; reference: fasted state,24.4%
same,"Food intake on MTT, bootstrapping median (95% CI)","[1]; reference: fasted state, nonparametric bootstrap",114.7 (69.0–168) %
same,"Vp1 / F, population estimate (%RSE)","[1]; volume of distribution of peripheral compartment 1, oral, 75 kg adult, n = 142",44.4 (8.7) L
same,"Vp2/F, population estimate (%RSE)","[1]; volume of distribution of peripheral compartment 2, oral, 75 kg adult, n = 142",647 (4.5) L
same,Enzyme catalyzing oxidative metabolism,CYP3A4,predominantly catalyzed by CYP3A4
same,"Slope of linear regression, DBS concentration vs. plasma concentration",[2],0.605
same,Terminal half-life,[3],> 20 days
same,Time to resolution of drug-related TEAEs of interest after onset,[4]; all apart from visual impairment in one subject,≤ 48 h
same,Nature and severity of drug-related TEAEs,"[4]; all, apart from moderate headaches in two subjects at 40 mg LSF solution",transient in nature and mild in severity
same,"Lag of drug-related TEAE of interest relative to Tmax, most subjects",[4]; in vivo,0 to 2.5 h
same,Share of drug-related TEAEs of interest occurring at 1–3 h post-dose,[4]; in vivo,83%
same,Time to resolution of visual impairment in one subject,[4]; in vivo,21 days
same,Deaths or severe drug-related TEAEs,[4]; n = 142,no deaths or severe drug-related TEAEs reported
same,"Subjects with drug-related TEAEs of interest, %",[4]; n = 142,19.0%
same,"Abdominal pain, % of subjects with drug-related TEAE","[4]; n = 142, pooled phase I",0.7%
same,"Balance disorder, % of subjects with drug-related TEAE","[4]; n = 142, pooled phase I",0.7%
same,"Cough, % of subjects with drug-related TEAE","[4]; n = 142, pooled phase I",0.7%
same,"Disorientation, % of subjects with drug-related TEAE","[4]; n = 142, pooled phase I",0.7%
same,"Disturbance in attention, % of subjects with drug-related TEAE","[4]; n = 142, pooled phase I",0.7%
same,"Euphoric mood, % of subjects with drug-related TEAE","[4]; n = 142, pooled phase I",1.4%
same,"Eye disorders, % of subjects with drug-related TEAE","[4]; n = 142, pooled phase I",14.1%
same,"Eye pain, % of subjects with drug-related TEAE","[4]; n = 142, pooled phase I",0.7%
same,"Feeling of relaxation, % of subjects with drug-related TEAE","[4]; n = 142, pooled phase I",2.1%
same,"Gastrointestinal disorders, % of subjects with drug-related TEAE","[4]; n = 142, pooled phase I",2.8%
same,"General disorders and administration site conditions, % of subjects with drug-related TEAE","[4]; n = 142, pooled phase I",0.7%
same,"Headache, % of subjects with drug-related TEAE","[4]; n = 142, pooled phase I",4.2%
same,"Hypervigilance, % of subjects with drug-related TEAE","[4]; n = 142, pooled phase I",0.7%
same,"Muscle spasms, % of subjects with drug-related TEAE","[4]; n = 142, pooled phase I",0.7%
same,"Musculoskeletal and connective tissue disorders, % of subjects with drug-related TEAE","[4]; n = 142, pooled phase I",0.7%
same,"Nausea, % of subjects with drug-related TEAE","[4]; n = 142, pooled phase I",2.1%
same,"Nervous system disorders, % of subjects with drug-related TEAE","[4]; n = 142, pooled phase I",12.7%
same,"Nervousness, % of subjects with drug-related TEAE","[4]; n = 142, pooled phase I",0.7%
same,"Oropharyngeal pain, % of subjects with drug-related TEAE","[4]; n = 142, pooled phase I",0.7%
same,"Paraesthesia oral, % of subjects with drug-related TEAE","[4]; n = 142, pooled phase I",0.7%
same,"Photophobia, % of subjects with drug-related TEAE","[4]; n = 142, pooled phase I",1.4%
same,"Photopsia, % of subjects with drug-related TEAE","[4]; n = 142, pooled phase I",0.7%
same,"Pigmentation disorder, % of subjects with drug-related TEAE","[4]; n = 142, pooled phase I",0.7%
same,"Psychiatric disorders, % of subjects with drug-related TEAE","[4]; n = 142, pooled phase I",1.4%
same,"Respiratory, thoracic and mediastinal disorders, % of subjects with drug-related TEAE","[4]; n = 142, pooled phase I",0.7%
same,"Sensation of foreign body, % of subjects with drug-related TEAE","[4]; n = 142, pooled phase I",0.7%
same,"Skin and subcutaneous tissue disorders, % of subjects with drug-related TEAE","[4]; n = 142, pooled phase I",0.7%
same,"Somnolence, % of subjects with drug-related TEAE","[4]; n = 142, pooled phase I",0.7%
same,"Vision blurred, % of subjects with drug-related TEAE","[4]; n = 142, pooled phase I",4.9%
same,"Visual acuity reduced, % of subjects with drug-related TEAE","[4]; n = 142, pooled phase I",0.7%
same,"Visual impairment, % of subjects with drug-related TEAE","[4]; n = 142, pooled phase I",9.2%
same,"Vomiting, % of subjects with drug-related TEAE","[4]; n = 142, pooled phase I",0.7%
same,"Subjects with drug-related TEAEs, %","[4]; n = 142, pooled phase I, oral 1–40 mg",21.8%
same,"Abdominal pain, subjects experiencing drug-related TEAE","[4]; of n = 142, pooled phase I",1
same,"Balance disorder, subjects experiencing drug-related TEAE","[4]; of n = 142, pooled phase I",1
same,"Cough, subjects experiencing drug-related TEAE","[4]; of n = 142, pooled phase I",1
same,"Disorientation, subjects experiencing drug-related TEAE","[4]; of n = 142, pooled phase I",1
same,"Disturbance in attention, subjects experiencing drug-related TEAE","[4]; of n = 142, pooled phase I",1
same,"Euphoric mood, subjects experiencing drug-related TEAE","[4]; of n = 142, pooled phase I",2
same,"Eye disorders, subjects experiencing drug-related TEAE","[4]; of n = 142, pooled phase I",20
same,"Eye pain, subjects experiencing drug-related TEAE","[4]; of n = 142, pooled phase I",1
same,"Feeling of relaxation, subjects experiencing drug-related TEAE","[4]; of n = 142, pooled phase I",3
same,"Gastrointestinal disorders, subjects experiencing drug-related TEAE","[4]; of n = 142, pooled phase I",4
same,"General disorders and administration site conditions, subjects experiencing drug-related TEAE","[4]; of n = 142, pooled phase I",1
same,"Headache, subjects experiencing drug-related TEAE","[4]; of n = 142, pooled phase I",6
same,"Hypervigilance, subjects experiencing drug-related TEAE","[4]; of n = 142, pooled phase I",1
same,"Muscle spasms, subjects experiencing drug-related TEAE","[4]; of n = 142, pooled phase I",1
same,"Musculoskeletal and connective tissue disorders, subjects experiencing drug-related TEAE","[4]; of n = 142, pooled phase I",1
same,"Nausea, subjects experiencing drug-related TEAE","[4]; of n = 142, pooled phase I",3
same,"Nervous system disorders, subjects experiencing drug-related TEAE","[4]; of n = 142, pooled phase I",18
same,"Nervousness, subjects experiencing drug-related TEAE","[4]; of n = 142, pooled phase I",1
same,"Oropharyngeal pain, subjects experiencing drug-related TEAE","[4]; of n = 142, pooled phase I",1
same,"Paraesthesia oral, subjects experiencing drug-related TEAE","[4]; of n = 142, pooled phase I",1
same,"Photophobia, subjects experiencing drug-related TEAE","[4]; of n = 142, pooled phase I",2
same,"Photopsia, subjects experiencing drug-related TEAE","[4]; of n = 142, pooled phase I",1
same,"Pigmentation disorder, subjects experiencing drug-related TEAE","[4]; of n = 142, pooled phase I",1
same,"Psychiatric disorders, subjects experiencing drug-related TEAE","[4]; of n = 142, pooled phase I",2
same,"Respiratory, thoracic and mediastinal disorders, subjects experiencing drug-related TEAE","[4]; of n = 142, pooled phase I",1
same,"Sensation of foreign body, subjects experiencing drug-related TEAE","[4]; of n = 142, pooled phase I",1
same,"Skin and subcutaneous tissue disorders, subjects experiencing drug-related TEAE","[4]; of n = 142, pooled phase I",1
same,"Somnolence, subjects experiencing drug-related TEAE","[4]; of n = 142, pooled phase I",1
same,"Vision blurred, subjects experiencing drug-related TEAE","[4]; of n = 142, pooled phase I",7
same,"Visual acuity reduced, subjects experiencing drug-related TEAE","[4]; of n = 142, pooled phase I",1
same,"Visual impairment, subjects experiencing drug-related TEAE","[4]; of n = 142, pooled phase I",13
same,"Vomiting, subjects experiencing drug-related TEAE","[4]; of n = 142, pooled phase I",1
same,Subjects with both eye disorders and nervous system disorders,[4]; of the 27 subjects with TEAE of interest,41%
same,"Subjects with drug-related TEAEs of interest (eye disorders and nervous system disorders), number",[4]; out of 142 subjects,27
same,"Subjects with drug-related TEAEs, number",[4]; out of 142 subjects,31
same,"Incidence of non drug-related infections and infestations, active treatment arms","[4]; vs. 0% placebo, p=0.13 (two-sided Fisher's exact test)",10.5%
